Reference: paper PMC12749166, “Fragment-based drug design of a bacterial kinase inhibitor capable of increasing the antibiotic sensitivity of clinical isolates” (Communications Chemistry, 2025)
Like-named read-outs stand apart in the source and are kept apart here.

Experiments:
[1] = system: APH(2”)-IVa; parameters: method as in PMID 19158087; details: read-out: Michaelis constant (Km) for ATP; cited from earlier work
[2] = system: APH(3’)-IIa; details: read-out: Michaelis constant (Km) for ATP; cited from earlier work
[3] = system: APH(3’)-IIb; parameters: method as in earlier work; details: read-out: Michaelis constant (Km) for ATP; cited from earlier work
[4] = biological target: APH(9)-Ia; parameters: method as in PMID 21573013, PMID 15388945; details: read-out: Inhibition constant; cited from earlier work
[5] = biological target: APH(3’)-IIIa; parameters: method as in PMID 21573013, PMID 15388945; details: read-out: Inhibition constant; cited from earlier work
[6] = system: resistant hyper-permeable efflux mutant of E. coli (ΔtolC ΔbamB); details: cited from earlier work
[7] = biological target: APH(3’)-Ia; parameters: method as in PMID 23758273; details: read-out: Inhibition constant; cited from earlier work
[8] = biological target: T1, APH(2”)-IVa (Enterococcus casseliflavus, UniProt O68183)
T1 sequence (O68183 1-301): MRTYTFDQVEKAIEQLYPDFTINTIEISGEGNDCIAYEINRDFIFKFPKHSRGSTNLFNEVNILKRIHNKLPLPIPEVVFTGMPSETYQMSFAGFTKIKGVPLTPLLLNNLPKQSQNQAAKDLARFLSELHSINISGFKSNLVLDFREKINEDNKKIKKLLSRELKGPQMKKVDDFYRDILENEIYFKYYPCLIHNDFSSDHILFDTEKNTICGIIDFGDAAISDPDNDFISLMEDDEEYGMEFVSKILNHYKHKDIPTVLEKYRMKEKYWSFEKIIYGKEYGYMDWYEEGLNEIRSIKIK

[9] = biological target: T1, APH(2”)-IVa; assay: biochemical; details: Ki (µM), inhibition constant, ATP-competitive; 0-2 mM MgATP, 100 µM kanamycin A, global fitting
[10] = biological target: T1, APH(2”)-IVa; assay: biochemical; type: binding; details: read-out: ΔTm (°C)
Protocol: Thermal shift assays were performed using an RTqPCR machine Mx3005P (Stratagene) in 96-well plates (Thermo-Fast low Profile, ThermoScientific) by mixing the protein at 5 µM, SYPRO® Orange (Sigma Aldrich) at […], and fragments at 500 µM. Fluorescence was followed with Cy3 and SYAL filters. Denaturation curves were collected using MxPro-Mx3005P v4.10 software and analyzed using the implemented version of wTSA-CRAFT[36].

[11] = biological target: T1, APH(2”)-IVa; assay: biochemical; type: binding
Protocol: ITC experiments were performed on three different machines: a MicroCal VP-ITC (GE Healthcare), a MicroCal PEAQ-ITC (Malvern), or a MicroCal iTC200 (Malvern). The architecture and principles are similar for the three different systems. The experiments were carried out in Buffer HEPES at 25 °C. Titrations consisted of twenty injections of 1.5 µL inhibitors, every 120 seconds, into the measuring cell using the injection syringe rotating at 750 rpm. The data were analyzed using the MicroCal PEAQ-ITC software (v. 1.52, Malvern) using the single-site binding model to fit the raw data. The standard error of the Kd value was determined from measurements made on distinct samples (n indicated in the text).

[12] = biological target: 12 different APHs; parameters: method as in PMID 23758273; details: all the APHs tested; cited from earlier work
[13] = system: APH(2”)-Ib; parameters: method as in PMID 11514228; details: at 1 mM; cited from earlier work
[14] = system: APH(3’)-IIIa; parameters: method as in PMID 11514228; details: cited from earlier work

**Q.** Which Km [1] does the source give for `Nc1ncnc2c1ncn2[C@@H]1O[C@H](COP(=O)(O)OP(=O)(O)OP(=O)(O)O)[C@@H](O)[C@H]1O` [ATP, adenosine 5’-triphosphate] here?
**A.** 101 µM

**Q.** And the Km [2]?
**A.** 45 µM

**Q.** What about the Km [3] of the same compound?
**A.** 24 µM

**Q.** For `NCCNS(=O)(=O)c1ccc(Cl)c2ccncc12` [CKI-7], which Ki [4] is on record?
**A.** 159 µM

**Q.** What about the Ki [5] of the same compound?
**A.** 66 µM

**Q.** With `CC(C)(C)n1nc(-c2cccc3ccccc23)c2c(N)ncnc21` [Compound 1-NA-PP1] as the compound, how does the “Rescue activity of kanamycin A” value [6] read?
**A.** demonstrated rescue activity of kanamycin A

**Q.** And the Ki [7]?
**A.** 21.5 µM

**Q.** For `CC(C)(C)n1nc(Cc2cccc3ccccc23)c2c(N)ncnc21` [Compound 1-NM-PP1], which “Rescue activity of kanamycin A” value [6] is on record?
**A.** demonstrated rescue activity of kanamycin A

**Q.** And the Ki [7]?
**A.** 34.4 µM

**Q.** With `O=C(O)c1cc(NC2CC2)ncc1Cl` [Compound 36] as the compound, how does the “kss” value ([8]; [36] = 20 µM, [MgATP] 0.1 mM) read?
**A.** 0.130 s⁻¹

**Q.** What about the “kss” value ([8]; [36] = 20 µM, [MgATP] 0.2 mM) of the same compound?
**A.** 0.200 s⁻¹

**Q.** And the “kss” value ([8]; [36] = 20 µM, [MgATP] 0.3 mM)?
**A.** 0.240 s⁻¹

**Q.** And the “kss” value ([8]; [36] = 20 µM, [MgATP] 0.4 mM)?
**A.** 0.278 s⁻¹

**Q.** What about the “kss” value ([8]; [36] = 50 µM, [MgATP] 0.1 mM) of the same compound?
**A.** 0.097 s⁻¹

**Q.** What about the “kss” value ([8]; [36] = 50 µM, [MgATP] 0.2 mM) of the same compound?
**A.** 0.138 s⁻¹

**Q.** And the “kss” value ([8]; [36] = 50 µM, [MgATP] 0.3 mM)?
**A.** 0.175 s⁻¹

**Q.** What about the “kss” value ([8]; [36] = 50 µM, [MgATP] 0.4 mM) of the same compound?
**A.** 0.207 s⁻¹

**Q.** And the “kss” value ([8]; [36] = 100 µM, [MgATP] 0.1 mM)?
**A.** 0.067 s⁻¹

**Q.** And the “kss” value ([8]; [36] = 100 µM, [MgATP] 0.2 mM)?
**A.** 0.101 s⁻¹

**Q.** And the “kss” value ([8]; [36] = 100 µM, [MgATP] 0.3 mM)?
**A.** 0.133 s⁻¹

**Q.** And the “kss” value ([8]; [36] = 100 µM, [MgATP] 0.4 mM)?
**A.** 0.156 s⁻¹

**Q.** And the Ki [9]?
**A.** 18.2 µM

**Q.** What about the ΔTm at 500 µM [10] of the same compound?
**A.** 2.69 °C

**Q.** What about the Kd [11] of the same compound?
**A.** 37.8 µM

**Q.** Which Ki [12] does the source give for `O=c1c(O)c(-c2ccc(O)c(O)c2)oc2cc(O)cc(O)c12` [Quercetin, quercetin] here?
**A.** 0.07 to 25 µM

**Q.** What does the source list for `COC[C@H]1OC(=O)c2coc3c2[C@@]1(C)C1=C(C3=O)[C@@H]2CCC(=O)[C@@]2(C)C[C@H]1OC(C)=O` [Wortmannin, wortmannin]?
**A.** Inhibition [13]: 90%; Inhibition [14]: did not affect
